“And” between values parts separate entries of the source, which are not always exact repeats. Equal values may be shown once.
Legend:
RPMI-8226 xenograft = experiment: RPMI-8226 multiple myeloma xenograft study; format: in vivo, CB-17 SCID mice
Description: For the in vivo efficacy studies, there were 8 mice per dose group and each mouse was inoculated subcutaneously at the right flank. All cells were suspended in a 0.2 mL mixture of base media and Matrigel at 1:1 for tumor development. RPMI-8226 cells were inoculated at 5 × 10^6 cells/mouse and treatment began when the mean tumor sizes reached 120 mm^3 (28 days post-inoculation). CB-17 SCID Mice were assigned into groups using a randomized block design. […] Body weights were measured twice a week for the duration of the study. Tumor size was measured twice weekly in two dimensions using a caliper, and the volume was expressed in cubic millimeters. Animals were euthanized 3 hours post-final dose, with blood and tissues collected for analysis.

[1] = Pharmacokinetic study in rat
Description: An additional group of rats, cannulated in both the jugular and portal veins were dosed by oral gavage (10 mg/kg, in 0.5% methylcellulose in water). Approximately 110 μL of blood was taken from the animals by retro-orbital bleeding (mouse), tail vein (rat i.v.) or both jugular and portal vein sampling (rat p.o.) at pre-specified time intervals. The 2 h samples were split for parallel determination of blood and plasma concentration (ex vivo ratio). Blood samples were collected into K2-EDTA tubes and centrifuged to obtain plasma.

UT-7 = experiment: Six-day cell proliferation assay (CellTiter-Glo); format: cell-based; conditions: Homo sapiens, UT7, 144 h; UT-7 (AML), 6 days; read-out: Average day 6 gIC50
Description: (§1) Six-day cell proliferation assay
(§2) Optimal cell seeding density was determined empirically for each cell lines by examining the gro wth of a wide ran ge o f seedin g densities in a 3 84-well formatto identify conditio ns that permitted maximal and continued proliferation for 6 days. Cells were plat ed in duplicate plates 24 hours before treatment with a 20- point two-fold dilution series of compound or 0.15%
(§3) DMSO. Plates were incubated for 6 da ys at 37°C in 5% CO2. Cells were th en l ysed with CellTiter-Glo (CTG) (Pr omega) and chemiluminescent sign al was detected with an appropriat e microplate reader. In addition, an untreated plate of cells was harvested at the time of compound addition (T0) to quantif y the initial cell densit y. CTG values obtained after 6 days of treatment were expressed as a percent of the T0 value and plotted against compound concentration. […]
(§4) Supplementary Table S 3. […] A p anel […]
(§5) of cell lines was treated with EZM2302fo r 6da ys in a proliferation ass a y. Cell densit y (as assessed b y CellTiter-Gl o) at da y 0 was compared to day 6 to det ermine growth IC 50 values , calculated us i n g a f our parameter dose response equation.
(§6) Cell Type According to Cell Type Category Cell L ine Name gIC50 Average day 6 Standard Replicates

RPMI-8226 = experiment: Six-day cell proliferation assay (CellTiter-Glo); format: cell-based; conditions: Homo sapiens, 144 h; RPMI-8226 (MM), 6 days; read-out: Average day 6 gIC50
Description: as §1, §2, §3, §4, §5, §6

TF-1 = experiment: Six-day cell proliferation assay (CellTiter-Glo); format: cell-based; conditions: Homo sapiens, 144 h; TF-1 (AML M6; Erythroleukemia), 6 days; read-out: Average day 6 gIC50
Description: as §1, §2, §3, §4, §5, §6

SHI-1 = experiment: Six-day cell proliferation assay (CellTiter-Glo); format: cell-based; conditions: 144 h; SHI-1 (AML), 6 days; read-out: Average day 6 gIC50
Description: as §1, §2, §3, §4, §5, §6

SK-MM-2 = experiment: Six-day cell proliferation assay (CellTiter-Glo); format: cell-based; conditions: Homo sapiens, 144 h; SK-MM-2 (Plasma cell leukemia), 6 days; read-out: Average day 6 gIC50
Description: as §1, §2, §3, §4, §5, §6

UCSD-AML1 = experiment: Six-day cell proliferation assay (CellTiter-Glo); format: cell-based; conditions: 144 h; UCSD-AML1 (AML), 6 days; read-out: Average day 6 gIC50
Description: as §1, §2, §3, §4, §5, §6

SH-2 = experiment: Six-day cell proliferation assay (CellTiter-Glo); format: cell-based; conditions: 144 h; SH-2 (AML), 6 days; read-out: Average day 6 gIC50
Description: as §1, §2, §3, §4, §5, §6

OPM-2 = experiment: Six-day cell proliferation assay (CellTiter-Glo); format: cell-based; conditions: Homo sapiens, 144 h; OPM-2 (MM), 6 days; read-out: Average day 6 gIC50
Description: as §1, §2, §3, §4, §5, §6

NOMO-1 = experiment: Six-day cell proliferation assay (CellTiter-Glo); format: cell-based; conditions: Homo sapiens, 144 h; NOMO-1 (AML), 6 days; read-out: Average day 6 gIC50
Description: as §1, §2, §3, §4, §5, §6

U266 B1 = experiment: Six-day cell proliferation assay (CellTiter-Glo); format: cell-based; conditions: Homo sapiens, U-266, 144 h; U266 B1 (MM), 6 days; read-out: Average day 6 gIC50
Description: as §1, §2, §3, §4, §5, §6

[2] = Sprague-Dawley, rat, plasma, po, 10 mg/kg
[3] = male, Sprague-Dawley, rat, plasma, iv, 2 mg/kg

With `CNC[C@@H](O)COc1ccc(Cl)c(-c2nc(-c3c(C)noc3C)c(C)c(N3CC4(CCN(C(=O)OC)CC4)C3)n2)c1` [EZM2302] the “Tumor growth inhibition (TGI)” value (RPMI-8226 xenograft; 37.5 mg/kg BID oral, 21 days) was 45%, the “increase in unmethylated SmB (SmBme0) in tumor” value (RPMI-8226 xenograft; 37.5 mg/kg BID oral, day 21) was 8 fold and the “maximal inhibition of aDMA levels in tumor” value (RPMI-8226 xenograft; 75 mg/kg BID oral, day 21) was 65%. For the same compound, the “Methylated PABP1 in tumor” value (RPMI-8226 xenograft; 75 mg/kg and higher dose groups, day 21) was “undetectable in most animals”, the “increase in unmethylated SmB (SmBme0) in tumor” value (RPMI-8226 xenograft; 150 mg/kg BID oral, day 21) was 14 fold and the tolerability (RPMI-8226 xenograft; 150 mg/kg and below BID oral, 21 days) was “well tolerated”. The “Tumor growth inhibition (TGI)” value (RPMI-8226 xenograft; 300 mg/kg BID oral, 21 days) was 63%, the body weight (RPMI-8226 xenograft; 300 mg/kg BID oral, 21 days) was “some body weight loss” and the “weight loss leading to dosing holidays” value (RPMI-8226 xenograft; 6 of 8 animals in the 300 mg/kg group, holidays of 2 to 8 days) was “greater than 8%”. The “day of maximal changes in methylation in tumor tissue” value (RPMI-8226 xenograft; 150 and 300 mg/kg BID, sampled after 2, 4 and 8 days) was 4 days, the “CL (plasma clearance)” value ([1]; Sprague-Dawley rat, IV Bolus 2 mg/kg, 2 mg/kg) was 90.5 ± 10.5 mL/min/kg and the “Fa*Fg (fraction of the dose absorbed from the gastro-intestinal tract)” value ([1]; Sprague-Dawley rat, PO 10 mg/kg, JVC-PVC rat PK experiment, 10 mg/kg) was 81% and 80.7%. For the same compound, the AUC(0-inf) [1, 2] was 487 ± 102 ng·h/mL, the AUC(0-t) [1, 2] was 453 ± 89.3 ng·h/mL and the Cmax [1, 2] was 113 ± 22.4 ng/mL. The Tmax [1, 2] was 2 h, the bioavailability [1, 2] was 26.2 ± 5.45% and the half-life [1, 2] was 6.64 ± 1.41 h. It also gave an AUC(0-inf) [1, 3] of 372 ± 43.3 ng·h/mL, an AUC(0-t) [1, 3] of 352 ± 30.6 ng·h/mL and a Vd [1, 3] of 35.6 ± 1.3 L/kg. For the same compound, the half-life [1, 3] was 6.21 ± 1.65 h, the clearance ([1]; male, Sprague-Dawley, rat, plasma, iv, 2 mg/kg, CL (plasma clearance), Sprague-Dawley rat, IV Bolus 2 mg/kg) was 91 mL/min/kg and the IC50 (UT-7) was greater than 27.6 µM. For the same compound, the IC50 (RPMI-8226) was greater than 26.1 µM, the IC50 (TF-1) was 25.9 µM and the IC50 (SHI-1) was greater than 36 µM. It also gave an IC50 (SK-MM-2) of 20.4 µM, an IC50 (UCSD-AML1) greater than 36.7 µM and an IC50 (SH-2) greater than 36.7 µM. It also gave an IC50 (OPM-2) of 4.95 µM, an IC50 (NOMO-1) greater than 36.5 µM and an IC50 (U266 B1) of 22.1 µM.

Reference: publication PMC5740082, “Identification of a CARM1 Inhibitor with Potent In Vitro and In Vivo Activity in Preclinical Models of Multiple Myeloma” (Scientific Reports, 2017)
